In brackets after ≈: the same amount, converted by molar mass. Like-named read-outs stand apart in the source and are kept apart here.
How the values were obtained:
Tetrahymena pyriformis W = test: Antiprotozoal activity, growth inhibition by the serial dilution method; assay type: cell-based
Protocol: Antiprotozoal activity of compound (I) was assayed with Tetrahymena pyriformis W as the test organism and a medium composed of 20 g tryptose-peptone (Difco Co.), 1 g yeast extract, 2 g glucose, 1000 ml distilled water, 10 ml 1 M phosphate buffer (pH 7.0) as the assay medium. The microorganism was incubated at 28° C. for 44 to 48 hours and the growth inhibitory activity of compound (I) was assayed by the serial dilution method.

leukemia P-388 = test: Antitumor activity, life span prolongation of mice transplanted intraperitoneally with leukemia P-388 tumor cells; assay type: in vivo; conditions: i.p. once daily for 9 consecutive days
Protocol: (§1) Therapeutic tests were carried out in mice according to NCI-protocols 1,200 and 1,300, Cancer Chemother, Reports, Part 3, 1972, Vol. 3, No. 2, in which leukemia P-388 and melanoma B-16 tumor cells had been intraperitoneally transplanted, compound (I) being administered intraperitoneally once daily for 9 consecutive days.

melanoma B-16 = test: Antitumor activity, life span prolongation of mice transplanted intraperitoneally with melanoma B-16 tumor cells; assay type: in vivo; conditions: i.p. once daily for 9 consecutive days
Protocol: as §1

[1] = Tetrahymena pyriformis, pH 7, read-out: Antiprotozoal activity MIC (minimal inhibitory concentration)

| Structure (SMILES) | MIC (Tetrahymena pyriformis W; [1]) [µg/mL] | Antitumor activities P-388 (T/C %) (leukemia P-388; 50 μg/kg) | Antitumor activities P-388 (T/C %) (leukemia P-388; 100 μg/kg) | Antitumor activities P-388 (T/C %) (leukemia P-388; 200 μg/kg) | Antitumor activities P-388 (T/C %) (leukemia P-388; 400 μg/kg) | Antitumor activities B-16 (T/C %) (melanoma B-16; 100 μg/kg) | Antitumor activities B-16 (T/C %) (melanoma B-16; 200 μg/kg) | Antitumor activities B-16 (T/C %) (melanoma B-16; 400 μg/kg) | Antitumor activities B-16 (T/C %) (melanoma B-16; 800 μg/kg) | MIC (Tetrahymena pyriformis W; Tetrahymena pyriformis W, 28° C., 44 to 48 hours, serial dilution method, pH 7.0, read-out: Antiprotozoal activity MIC (minimal inhibitory concentration)) [µg/mL] |
| --- | --- | --- | --- | --- | --- | --- | --- | --- | --- | --- |
| COc1cc2cc(c1)N(C)C(=O)CC(OC(=O)CCl)C1(C)OC1C(C)C1CC(O)(NC(=O)O1)C(OC)C=CC=C(C)C2 (stereo not shown) [Dechloromaytansinol 3-chloroacetate, dechloromaytansinol 3-chloroacetate] | ≥ 4 | – | – | – | – | – | – | – | – | – |
| COc1cc2cc(c1)N(C)C(=O)CC(OC(=O)C1CCCCC1)C1(C)OC1C(C)C1CC(O)(NC(=O)O1)C(OC)C=CC=C(C)C2 (stereo not shown) [dechloromaytansinol 3-cyclohexanecarboxylate] | 4 (≈ 6.24 µM) | – | – | – | – | – | – | – | – | – |
| COc1cc2cc(c1)N(C)C(=O)CC(OC(=O)C(C)C)C1(C)OC1C(C)C1CC(O)(NC(=O)O1)C(OC)C=CC=C(C)C2 (stereo not shown) [Dechloromaytansinol 3-isobutyrate, dechloromaytansinol 3-isobutyrate] | – | 168 | 189 | 193 | 224 | 150 | 152 | 174 | 214 | – |
| COc1cc2cc(c1)N(C)C(=O)CC(OC(=O)[C@H](C)N(C)C(C)=O)C1(C)OC1C(C)C1CC(O)(NC(=O)O1)C(OC)C=CC=C(C)C2 (stereo partly shown) [Dechloromaytansine, dechloromaytansine] | – | 158 | 165 | 175 | 189 | 171 | 152 | 179 | 190 | – |
| COc1cc2cc(c1)N(C)C(=O)CC(OC(=O)Cc1ccccc1)C1(C)OC1C(C)C1CC(O)(NC(=O)O1)C(OC)C=CC=C(C)C2 (stereo not shown) [Dechloromaytansinol 3-phenylacetate, dechloromaytansinol 3-phenylacetate] | – | – | – | – | – | – | – | – | – | 2 (≈ 3.08 µM) |

From patent US4256746A, “Dechloromaytansinoids, their pharmaceutical compositions and method of use” (priority 1978, dated 1981)
